ChEMBL document CHEMBL5543173, “Discovery of a New Anti-Inflammatory Agent from Anemoside B4 Derivatives and Its Therapeutic Effect on Colitis by Targeting Pyruvate Carboxylase” (J Med Chem, 2024)
Activity calls are given as the source filed them. The rule behind the calls is not given here.

How the values were obtained:
[1] = tested on: THP-1; assay: Anti-inflammatory activity in LPS-treated human THP-1 cells assessed as decrease in phosphorylated I-kappaB-alpha level at 10 uM pretreated for 1 hr followed by LPS treatment for 6 hrs by Western blot analysis; format: functional, cell-based; conditions: time 7.0 hrs
[2] = tested on: Mus musculus; assay: Anti-colitis activity in ICR mouse model assessed as decrease in DSS-induced body weight loss at 15 to 60 mg/kg, IG treated for 9 days consecutively; format: functional, organism-based; conditions: dose 15-60 mg/kg, time 9.0 day
[3] = tested on: THP-1; assay: Anti-inflammatory activity in human THP-1 cells assessed as decrease in LPS-induced IL-6 level pretreated for 1 hr followed by LPS treatment for 24 hrs by ELISA; format: functional, cell-based; conditions: dose 0.1-10 µM, time 25.0 hrs
[4] = Stability in mouse plasma assessed as half life at 10 uM preincubated for 5 mins followed by NADPH addition measured for 10 to 480 mins by LC-MS/MS analysis; format: ADME, cell-free; conditions: time 15-485 min
[5] = Cmax in ICR mouse at 15 mg/kg, IG measured for 12 hrs by LC-MS/MS analysis; format: ADME, organism-based; conditions: in vivo, po
[6] = tested on: THP-1; assay: Anti-inflammatory activity in human THP-1 cells assessed as decrease in LPS-induced pro-IL-1beta level at 1 to 10 uM pretreated for 1 hr followed by LPS/ATP treatment for 6 hrs by Western blot analysis; format: functional, cell-based; conditions: dose 1-10 µM, time 7.0 hrs
[7] = tested on: Mus musculus; assay: Anti-colitis activity in ICR mouse model of DSS-induced colitis assessed as effect on pyruvate carboxylase expression in colon tissue at 60 mg/kg, IG treated for 8 days consecutively by Western blot analysis; format: functional, organism-based; conditions: time 8.0 day
[8] = Toxicity in ICR mouse assessed as change in spleen index at 300 mg/kg, IG measured for 9 days; format: organism-based; conditions: in vivo, po, 216 h, time 9 day
[9] = tested on: THP-1; assay: Anti-inflammatory activity in human THP-1 cells assessed as decrease in LPS-induced phosphorylated I-kappaB-alpha level pretreated for 1 hr followed by LPS treatment for 6 hrs by Western blot analysis; format: functional, cell-based; conditions: dose 1-10 µM, time 7.0 hrs
[10] = tested on: Mus musculus; assay: Anti-colitis activity in ICR mouse model assessed as reversal of DSS-induced splenomegaly at 15 to 60 mg/kg, IG treated for 9 days consecutively; format: functional, organism-based; conditions: dose 15-60 mg/kg, time 9.0 day
[11] = tested on: Mus musculus; assay: Anti-colitis activity in ICR mouse model assessed as decrease in DSS-induced inflammatory cell infiltration in colon tissue at 15 to 60 mg/kg, IG treated for 8 days consecutively by H and E staining based analysis; format: functional, organism-based; conditions: dose 15-60 mg/kg, time 8.0 day
[12] = Half life in ICR mouse at 15 mg/kg, IG measured for 12 hrs by LC-MS/MS analysis; format: ADME, organism-based; conditions: ICR, in vivo, po
[13] = tested on: Mus musculus; assay: Anti-colitis activity in ICR mouse model assessed as increase in DSS-reduced pyruvate level at 60 mg/kg, IG treated for 8 days consecutively in presence of DADA; format: functional, organism-based; conditions: time 8.0 day
[14] = tested on: Mus musculus; assay: Anti-colitis activity in ICR mouse model assessed as decrease in DSS-induced P65 phosphorylation in colon tissue at 60 mg/kg, IG treated for 8 days consecutively in presence of DADA by Western blot analysis; format: functional, organism-based; conditions: time 8.0 day
[15] = Toxicity in ICR mouse assessed as change in colon index at 300 mg/kg, IG measured for 9 days; format: organism-based; conditions: in vivo, po, 216 h, time 9 day
[16] = MRT (0 to t) in ICR mouse at 15 mg/kg, IG measured for 12 hrs by LC-MS/MS analysis; format: ADME, organism-based; conditions: in vivo, po
[17] = tested on: Mus musculus; assay: Anti-colitis activity in ICR mouse model assessed as decrease in DSS-induced DAI score at 15 to 60 mg/kg, IG treated for 8 days consecutively; format: functional, organism-based; conditions: dose 15-60 mg/kg, time 8.0 day
[18] = Cmax in colon of ICR mouse at 15 mg/kg, IG measured for 12 hrs by LC-MS/MS analysis; format: ADME, organism-based; conditions: po
[19] = Stability in mouse liver microsomes assessed as intrinsic clearance at 10 uM preincubated for 5 mins followed by NADPH addition measured for 10 to 480 mins by LC-MS/MS analysis; format: ADME, Microsome; conditions: time 15-485 min
[20] = tested on: Mus musculus; assay: Anti-colitis activity in ICR mouse model of DSS-induced colitis assessed as decrease in DAI score at 15 to 60 mg/kg, IG treated for 9 days consecutively; format: functional, organism-based; conditions: dose 15-60 mg/kg, time 9.0 day
[21] = Half life in Sprague-Dawley rat administered as hydroxypropyl-beta-cyclodextrin at 20 mg/kg, IG measured for 12 hrs by LC-MS/MS analysis; format: ADME, organism-based; conditions: in vivo, po
[22] = Toxicity in ICR mouse assessed as change in heart index at 300 mg/kg, IG measured for 9 days; format: organism-based; conditions: in vivo, po, 216 h, time 9 day
[23] = Toxicity in ICR mouse assessed as change in body weight at 300 mg/kg, IG measured for 9 days; format: organism-based; conditions: in vivo, po, 216 h, time 9 day
[24] = tested on: THP-1; assay: Anti-inflammatory activity in human THP-1 cells assessed as decrease in LPS-induced IL-1beta level at 1 to 10 uM pretreated for 1 hr followed by LPS/ATP treatment for 6 hrs by Western blot analysis; format: functional, cell-based; conditions: dose 1-10 µM, time 7.0 hrs
[25] = tested on: Mus musculus; assay: Anti-colitis activity in ICR mouse model assessed as decrease in DSS-induced epithelial cell injury in colon tissue at 15 to 60 mg/kg, IG treated for 8 days consecutively by H and E staining based analysis; format: functional, organism-based; conditions: dose 15-60 mg/kg, time 8.0 day
[26] = tested on: Mus musculus; assay: Anti-colitis activity in ICR mouse model assessed as decrease in DSS-induced I-kappaB-alpha degradation in colon tissue at 60 mg/kg, IG treated for 8 days consecutively by Western blot analysis; format: functional, organism-based; conditions: time 8.0 day
[27] = Stability in mouse liver microsomes assessed as half life at 10 uM preincubated for 5 mins followed by NADPH addition measured for 10 to 480 mins by LC-MS/MS analysis; format: ADME, Microsome; conditions: time 15-485 min
[28] = Tmax in Sprague-Dawley rat administered as hydroxypropyl-beta-cyclodextrin at 20 mg/kg, IG measured for 12 hrs by LC-MS/MS analysis; format: ADME, organism-based; conditions: in vivo, po
[29] = Volume of distribution in ICR mouse at 15 mg/kg, IG measured for 12 hrs by LC-MS/MS analysis; format: ADME, organism-based; conditions: in vivo, po
[30] = Toxicity in ICR mouse assessed as change in kidney index at 300 mg/kg, IG measured for 9 days; format: organism-based; conditions: in vivo, po, 216 h, time 9 day
[31] = tested on: Mus musculus; assay: Anti-colitis activity in ICR mouse model assessed as decrease in DSS-induced I-kappaB-alpha degradation in colon tissue at 60 mg/kg, IG treated for 8 days consecutively in presence of DADA by Western blot analysis; format: functional, organism-based; conditions: time 8.0 day

C=C(C)[C@@H]1CC[C@]2(C(=O)NCCCCCC(=O)OC)CC[C@]3(C)[C@H](CC[C@@H]4[C@@]5(C)CC[C@H](O[C@@H]6OC[C@H](O)[C@H](O)[C@H]6O[C@@H]6O[C@@H](C)[C@H](O)[C@@H](O)[C@H]6O)[C@@](C)(CO)[C@@H]5CC[C@]43C)[C@@H]12
Activity [1]: Active | Activity [2]: Active | Activity [3]: Dose-Dependent Effect | half-life at 10 µM [4]: 1.14 min | Cmax [5]: 40.4 ng/mL | Activity [6]: Active | Activity [7]: inactive | Activity [8]: Non-Toxic | Activity [9]: Dose-Dependent Effect | Activity [10]: Active | Activity [11]: Active | half-life [12]: 148 min | Activity [13]: inactive | Activity [14]: inactive | Activity [15]: Non-Toxic | MRT last at 12 h [16]: 3.1 h | Activity [17]: Active | Cmax [18]: 1110 ng/mL | CLH [19]: 6.46 µL/min/mg | Activity [20]: Active | t1/2 [21]: 1.38 h | Activity [22]: Non-Toxic | Activity [23]: Non-Toxic | Activity [24]: Active | Activity [25]: Active | Activity [26]: Active | t1/2 [27]: 6.46 min | Tmax [28]: 30 min | Vd [29]: 2867.15 L/kg | Activity [30]: Non-Toxic | Activity [31]: inactive
